Square brackets hold non-standard residues; d marks the D form. Peptide text beside a SMILES is read from it. ξ: configuration not given here. ξLac(3-iPr) = CC(C)CC(O)C(=O)O; NMeV = CN[CH](C(=O)O)C(C)C; NMeA = CN[CH](C)C(=O)O; βAla = NCCC(=O)O Some results are limits rather than exact numbers.

The conditions of the series: pampa; pH 5.0; 30.0 min; 50.0 µM.
In the case of `COc1ccc(Cn2c(C(=O)O)c(CNCc3cccc(OC)c3)c3ccc(C)cc32)cc1`, the Papp (commonly the rate of passage across a membrane or cell layer, normalised by area and donor concentration) is 931 ×10⁻⁶ cm/s.
With `Cc1ccc(-n2c(=O)c3oc4ccccc4c3n(CC(=O)Nc3ccc(F)c(Cl)c3)c2=O)cc1C`, the apparent permeability coefficient (Papp) stood at 583 ×10⁻⁶ cm/s. This Papp is about 1.6-fold lower than that of the compound before.
In the case of `C=Cc1ccc(Cn2c(C(=O)O)c(CNC3CCCCC3)c3ccc(OC)cc32)cc1`, the apparent permeability coefficient (Papp) was 702 ×10⁻⁶ cm/s.
With `O=C(Nc1ccc(N2CCC(N3CCCCC3)CC2)c(C(=O)O)c1)c1ccc(Br)cc1`, the Papp came to 7.15 ×10⁻⁶ cm/s.
`O=C(Cc1cccs1)NCc1nnc2ccc(-c3ccccc3)nn12` showed a Papp of 55.9 ×10⁻⁶ cm/s.
Consider `CC(=O)NCCNC[C@@H]1C=C(C)[C@H](Cc2nnc(-c3ccccc3)o2)C[C@H]1C(C)C`, for which the apparent permeability coefficient (Papp) is 25.8 ×10⁻⁶ cm/s. This Papp is about 2.2-fold lower than that of the compound before.
`CC(C)(C)C(=O)N1CCN(c2nccc(Nc3ccccc3Cl)n2)CC1` gave an apparent permeability (Papp) of 895 ×10⁻⁶ cm/s.
As to `CCC(C)C1NC(=O)C2CCCN2C(=O)C(CC(C)C)OC(=O)CCNC(=O)C(C)N(C)C(=O)C(C(C)C)N(C)C1=O` (stereo not given) (cyclo([ξLac(3-iPr)]PI[NMeV][NMeA][βAla]); configuration not given here), the apparent permeability coefficient (Papp) stood at 74 ×10⁻⁶ cm/s.
As for `COc1ccc(-n2nc(C3CCCN(C(=O)Cc4ccc(F)cc4)C3)[nH]c2=O)cc1` (stereo not given), the Papp worked out at 524 ×10⁻⁶ cm/s.
`Cc1nc(-c2ccco2)cc([C@H]2CN3CC[C@H]2C[C@@H]3CNC(=O)NC2CCCCC2)n1` displayed an apparent permeability (Papp) of 4.96 ×10⁻⁶ cm/s. This Papp is about 110-fold lower than that of the compound before.
As for `CN(C)c1cccc(-c2cnc(Nc3cccnc3)c3c2CCO3)c1`, the figure is above 1000 ×10⁻⁶ cm/s.
For the compound `COc1ccc(C2c3c(oc4ccc(C)cc4c3=O)C(=O)N2CCCN2CCOCC2)cc1OC` (stereo not given), the Papp turned out to be 19.2 ×10⁻⁶ cm/s.
On to `Cn1c(CN2CCCCC2)nc2cc(NC(=O)c3cccc(Br)c3)ccc21`, for which the Papp was 178 ×10⁻⁶ cm/s.
The same measure for `O=C(NCc1ccc(S(=O)(=O)c2cccc(C(F)(F)F)c2)cc1)c1cnc2[nH]ncc2c1`: 362 ×10⁻⁶ cm/s.
The same measure for `O=C(O)C1CCN(c2ncc(-c3ccc4c(c3)OCCCO4)s2)CC1`: above 1000 ×10⁻⁶ cm/s; for `CN(C)CC[C@@H](c1ccc(Cl)cc1)c1ccccn1`: 82.5 ×10⁻⁶ cm/s.
In turn, `COc1ccc2[nH]c3c(c2c1)CCNC31CCN(S(=O)(=O)c2c(C)noc2C)CC1` came in with a Papp of 161 ×10⁻⁶ cm/s. This Papp is about 2-fold higher than that of the compound before.
For the compound `CC(C)(C)c1ccc(S(=O)(=O)N2CCC(c3ccncc3)CC2)cc1`, the Papp turned out to be 754 ×10⁻⁶ cm/s.
For the compound `COc1ccc(-n2nc(C)c([C@@H]3C=C[C@@H](NCc4ccc(N(C)C)cc4)C3)c2C)cc1`, the apparent permeability (Papp) is above 1000 ×10⁻⁶ cm/s.
`CCC(CC)c1cc([C@H]2CN3CC[C@H]2C[C@@H]3CNC(=O)COc2ccccc2)nc(-c2ccncc2)n1` returned a Papp of 374 ×10⁻⁶ cm/s.
The compound `COc1c(O)cc2c(c1OC)-c1ccc(SC)c(=O)cc1C(NC(C)=O)CC2` (stereo not given) yielded a Papp of 20.7 ×10⁻⁶ cm/s.
`C=CCc1ccc(O)c(-c2ccc(O)c(CC=C)c2)c1` had a Papp of 446 ×10⁻⁶ cm/s.
Compound `CC/C=C\C/C=C\C/C=C\C/C=C\C/C=C\C/C=C\CCC(=O)NCCO` displayed a Papp of 19.5 ×10⁻⁶ cm/s. Compared with the last compound, the Papp is about 23-fold lower.
The compound `COc1ccc(-n2nc(C3CCCN(CC4CCCCC4)C3)[nH]c2=O)cc1` (stereo not given) showed a Papp of 322 ×10⁻⁶ cm/s. Compared with the last compound, the Papp is about 17-fold higher.
For the compound `CCOc1ccc(C2C(C(=O)Nc3ccccc3OC)=C(C)Nc3c(C(=O)Nc4cccc(C)c4)cnn32)cc1` (stereo not given), the Papp worked out at 170 ×10⁻⁶ cm/s.
The same measure for `Cc1nn2c(c1-c1ccccc1-c1ccccc1)N(CC1CC1)CCC2`: above 1000 ×10⁻⁶ cm/s; for `Cn1cnc(-c2nccc3c(=O)[nH]c(OCCCC(F)(F)F)nc23)c1`: 78.7 ×10⁻⁶ cm/s; for `CC(C)n1cc(-c2ccc3c(c2)N(C)CC3)c2c(NS(=O)(=O)c3ccn(C)n3)ccnc21`: above 1000 ×10⁻⁶ cm/s.
As for `O=C(NCC1CCOCC1)C1CC(=O)N(c2n[nH]c3cc(Br)ccc23)C1` (stereo not given), the figure is 10.6 ×10⁻⁶ cm/s; as for `COC(=O)c1cc2occc2n1Cc1nc(-c2ccc(C)cc2)oc1C`, 257 ×10⁻⁶ cm/s.
As for `COC(=O)c1ccc(O)c2ncc(N3CCN(C)CC3)cc12`, the figure is 80.1 ×10⁻⁶ cm/s.
As for `CN(C)c1ccc(CN2CCNc3cc(Nc4ccccc4)ncc3C2)cc1`, the apparent permeability coefficient (Papp) amounted to 107 ×10⁻⁶ cm/s.
With `O=C(NCCc1ccccn1)C1CC(=O)N(c2n[nH]c3cc(Br)ccc23)C1` (stereo not given), the apparent permeability coefficient (Papp) stood at 11.5 ×10⁻⁶ cm/s.
`CCN1CCCC1CNC(=O)c1cc(S(=O)(=O)CC)c(N)cc1OC` (stereo not given): the apparent permeability coefficient (Papp) worked out at 6.63 ×10⁻⁶ cm/s.
Turning to `Cc1ccnc(NC(=S)N2CCN(c3ccc(N)cc3)CC2)c1`, the apparent permeability (Papp) came to 4.13 ×10⁻⁶ cm/s.
The same measure for `COc1ccc(Nc2cnc3ccc(-c4ccc(OC)c(OC)c4)nn23)cc1`: 821 ×10⁻⁶ cm/s; for `c1ccc(-c2cn[nH]c2)cc1`: 51.2 ×10⁻⁶ cm/s.
The same measure for `Cc1nc([C@](C)(O)CO)sc1-c1cnc(N)c(O[C@H](C)c2cc(F)ccc2-n2nccn2)c1`: 322 ×10⁻⁶ cm/s; for `CCn1cc(C(=O)N2CCN(c3cccc(Cl)c3)CC2)c2cc(OC)c(OC)cc2c1=O`: 810 ×10⁻⁶ cm/s.
As for `Cc1nn2c(c1-c1ccccc1OCc1ccccc1)N(C(=O)Cc1ccc3c(c1)OCO3)CCC2`, the figure is above 1000 ×10⁻⁶ cm/s; as for `Cc1ccc(CN2C(=O)C(O)(CC(=O)c3ccc(C)cc3)c3ccccc32)cc1` (stereo not given), 626 ×10⁻⁶ cm/s.
On to `COc1cc(C2c3c(oc4cc(C)c(C)cc4c3=O)C(=O)N2CCCN2CCOCC2)ccc1O` (stereo not given), for which the Papp is 25.3 ×10⁻⁶ cm/s.
Take `Cn1cc2c3c(cccc31)CN(C(=O)c1ccc(F)c(Cl)c1)CC2`: the Papp came to 824 ×10⁻⁶ cm/s.
Compound `OC1(c2ccc(Cl)cc2)CCN(Cc2c[nH]c3ccccc23)CC1` displayed an apparent permeability coefficient (Papp) of 419 ×10⁻⁶ cm/s.
For the compound `COc1ccc2[nH]c(S(=O)Cc3ncc(C)c(OC)c3C)nc2n1` (stereo not given), the apparent permeability coefficient (Papp) was determined as 49.8 ×10⁻⁶ cm/s.
For `O=C(O)c1ccc(Nc2nc(-c3cc4ccccc4oc3=O)cs2)cc1O`, the Papp was 74.2 ×10⁻⁶ cm/s. This Papp and that of the compound before are within 1.5-fold of each other.
As for `Oc1ccccc1CN1CCNc2cc(Nc3ccccc3)ncc2C1`, the Papp came out at 23.1 ×10⁻⁶ cm/s. This Papp is about 3.2-fold lower than that of the compound before.
The same measure for `CN1C(=O)C(=O)N2C(=C[C@]3(c4c[nH]c5ccccc45)c4ccccc4N[C@H]23)C1=O`: 986 ×10⁻⁶ cm/s; for `Cc1ccc(Nc2nc(C)c(NC(=O)c3ccc(C)cc3)c(Nc3ccc(C)cc3)n2)cc1`: 6.76 ×10⁻⁶ cm/s.
The same measure for `O=C(Nc1ccc(Cl)cc1)C(NS(=O)(=O)c1cccs1)c1ccccc1` (stereo not given): 443 ×10⁻⁶ cm/s; for `O=C(c1ccccc1)N1CCC(c2nn(-c3ccc(F)cc3)c(=O)[nH]2)CC1`: 521 ×10⁻⁶ cm/s; for `Cc1cccc(-c2noc([C@@H]3Cc4nc[nH]c4CN3C(=O)CC(C)(C)CC(=O)O)n2)c1`: 46.7 ×10⁻⁶ cm/s.
Regarding `Cc1c(Cl)cccc1NC(=O)CNS(=O)(=O)c1cccs1`, the apparent permeability coefficient (Papp) was found to be 458 ×10⁻⁶ cm/s.
In the case of `CCOC(=O)Nc1ccc(NCc2ccc(F)cc2)nc1N`, the apparent permeability (Papp) turned out to be 142 ×10⁻⁶ cm/s.
The same measure for `Cc1c(C(=O)NN2CCCCC2)nn(-c2ccc(Cl)cc2Cl)c1-c1ccc(Cl)cc1`: above 1000 ×10⁻⁶ cm/s.
On to `CCOc1ccccc1C(=O)Nc1ccncc1C(=O)Nc1cccc(S(=O)(=O)C(F)(F)F)c1`, for which the Papp is 139 ×10⁻⁶ cm/s.
Consider `CC(C)(C)c1ccc(C(=O)Nc2ccc3c(c2)CCCN3C(=O)c2cccs2)cc1`, for which the apparent permeability (Papp) amounted to 884 ×10⁻⁶ cm/s.
The same measure for `COc1ccc(-n2nc(C3CCCN(C(=O)C4CC4)C3)[nH]c2=O)cc1` (stereo not given): 109 ×10⁻⁶ cm/s.
In the case of `CCN(CC)CCOc1ccc(Cc2ccccc2)cc1`, the apparent permeability (Papp) amounted to 236 ×10⁻⁶ cm/s.
As to `Cc1ccc(C(=O)N2CCc3c(nc4cc(-c5ccccc5)[nH]n4c3=O)C2)cn1`, the apparent permeability coefficient (Papp) came out at 1.2 ×10⁻⁶ cm/s. This Papp is about 200-fold lower than that of the compound before.
The same measure for `CC(=O)Nc1ccc(C(=O)Nc2ccc3c(c2)N(C2CCCC2)C(=O)c2ccccc2S3)cc1`: 511 ×10⁻⁶ cm/s.
In the case of `COc1ccc(OC)c(CN2CCNc3cc(Nc4ccccc4)ncc3C2)c1`, the apparent permeability (Papp) came out at 2.33 ×10⁻⁶ cm/s.
`c1ccc(CNc2nc(NCc3ccccc3)c3ccccc3n2)cc1` registered a Papp of 190 ×10⁻⁶ cm/s.
As for `O=c1ncn2nc(Sc3ccc(F)cc3F)ccc2c1-c1c(Cl)cccc1Cl`, the figure is 793 ×10⁻⁶ cm/s.
The compound `COc1ccc(C2c3c(oc4ccc(Cl)cc4c3=O)C(=O)N2CCCN(C)C)cc1OC` (stereo not given) showed a Papp of 7.76 ×10⁻⁶ cm/s. This Papp is about 100-fold lower than that of the compound before.

For the origin of these results see PubChem BioAssay AID1645871.
